In brackets after ≈: the same amount, converted by molar mass.
Columns and labels:
Assay type in all cases: cell-based
Botrytis cineria = assay: Agar diffusion test, spectrum of action on fungi; conditions: 20 μg per test disc of 6 mm diameter
KB-3-1 (DSM ACC 158) = assay: Cytostatic action on human cancer cell line; conditions: KB-3-1 human cancer cell line
[1] = system: Pt K2, Potorous tridactylis (ATCC CCL 56); assay: Cytostatic action on animal cell line
Pythinum debaryanum = assay: Agar diffusion test, spectrum of action on fungi; conditions: 20 μg per test disc of 6 mm diameter
K-562 (ATCC CCL 243) = assay: Cytostatic action on human cancer cell line; conditions: K-562 human cancer cell line
Aspergillus niger = assay: Agar diffusion test, spectrum of action on fungi; conditions: 20 μg per test disc of 6 mm diameter
Coprinus cinereus = assay: Agar diffusion test, spectrum of action on fungi; conditions: 20 μg per test disc of 6 mm diameter
HL-60 (ATCC-CCL 240) = assay: Cytostatic action on human cancer cell line; conditions: HL-60 human cancer cell line
L929, mouse (ATCC CCL1) = assay: Cytostatic action on animal cell line

SMILES | Inhibition zone (Botrytis cineria) [mm] | IC50 (KB-3-1 (DSM ACC 158)) [ng/mL] | IC50 [1] [ng/mL] | Inhibition zone (Pythinum debaryanum) [mm] | IC50 (K-562 (ATCC CCL 243)) [ng/mL] | Inhibition zone (Aspergillus niger) [mm] | Inhibition zone (Coprinus cinereus) [mm] | IC50 (HL-60 (ATCC-CCL 240)) [ng/mL] | IC50 (L929, mouse (ATCC CCL1)) [ng/mL]
CC[C@H](C)[C@H](NC(=O)[C@H]1CCCCN1C)C(=O)N(COC(=O)CC(C)C)[C@H](C[C@@H](OC(C)=O)c1nc(C(=O)N[C@@H](Cc2ccc(O)cc2)C[C@H](C)C(=O)O)cs1)C(C)C [Tubulysin A] | 23 | 0.01 (≈ 0.0118 nM) | 0.2 (≈ 0.237 nM) | 20 | 0.1 (≈ 0.118 nM) | 20 | 20 | 0.04 (≈ 0.0474 nM) | 0.2 (≈ 0.237 nM)
CCCC(=O)OCN(C(=O)[C@@H](NC(=O)[C@H]1CCCCN1C)[C@@H](C)CC)[C@H](C[C@@H](OC(C)=O)c1nc(C(=O)N[C@@H](Cc2ccc(O)cc2)C[C@H](C)C(=O)O)cs1)C(C)C [Tubulysin B] | 18 | 0.02 (≈ 0.0241 nM) | 0.2 (≈ 0.241 nM) | – | 0.2 (≈ 0.241 nM) | 18 | – | 0.08 (≈ 0.0964 nM) | 0.4 (≈ 0.482 nM)
CCC(=O)OCN(C(=O)[C@@H](NC(=O)[C@H]1CCCCN1C)[C@@H](C)CC)[C@H](C[C@@H](OC(C)=O)c1nc(C(=O)N[C@@H](Cc2ccc(O)cc2)C[C@H](C)C(=O)O)cs1)C(C)C [Tubulysin C] | – | 0.1 (≈ 0.123 nM) | 2 (≈ 2.45 nM) | – | 1.5 (≈ 1.84 nM) | – | – | 0.4 (≈ 0.49 nM) | 2 (≈ 2.45 nM)

Source: patent publication US20060217360A1, “Tubulysin biosynthesis gene” (priority 2002, published 2006)
